Experimental data published in PubChem BioAssay (NCI).
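Cultured in 96-well plates, cells were exposed to test compound for 48 hours across five concentrations. Abbreviation: GI50, concentration required for 50% inhibition of growth. At the TGI there is no net growth.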

Columns and labels:
Experiment in all cases: NCI-60 cell line screen, 48 h
HCT-116 colon = system: HCT-116 colon
RPMI-8226 leukemia = system: RPMI-8226 leukemia
DU-145 prostate = system: DU-145 prostate
MDA-MB-435 = system: MDA-MB-435
TK-10 renal = system: TK-10 renal
A498 renal = system: A498 renal
M14 melanoma = system: M14 melanoma
T-47D breast = system: T-47D breast
SF-268 CNS = system: SF-268 CNS
LOX IMVI melanoma = system: LOX IMVI melanoma
K-562 leukemia = system: K-562 leukemia
HOP-92 NSCLC = system: HOP-92 NSCLC
NCI/ADR-RES ovarian = system: NCI/ADR-RES ovarian
SK-MEL-2 melanoma = system: SK-MEL-2 melanoma
SF-295 CNS = system: SF-295 CNS
OVCAR-4 ovarian = system: OVCAR-4 ovarian
SW-620 colon = system: SW-620 colon
RXF 393 renal = system: RXF 393 renal
MDA-MB-231 breast = system: MDA-MB-231 breast
MOLT-4 leukemia = system: MOLT-4 leukemia
U251 CNS = system: U251 CNS
MALME-3M melanoma = system: MALME-3M melanoma
SNB-19 CNS = system: SNB-19 CNS
HCC-2998 colon = system: HCC-2998 colon
CCRF-CEM leukemia = system: CCRF-CEM leukemia
BT-549 breast = system: BT-549 breast
KM12 colon = system: KM12 colon
SR leukemia = system: SR leukemia
NCI-H23 lung = system: NCI-H23 lung
SN12C renal = system: SN12C renal
OVCAR-5 ovarian = system: OVCAR-5 ovarian
A549 NSCLC = system: A549 NSCLC
ACHN renal = system: ACHN renal
SK-OV-3 ovarian = system: SK-OV-3 ovarian
HOP-62 NSCLC = system: HOP-62 NSCLC
786-0 renal = system: 786-0 renal
UACC-62 melanoma = system: UACC-62 melanoma
MCF7 breast = system: MCF7 breast
NCI-H522 lung = system: NCI-H522 lung
EKVX NSCLC = system: EKVX NSCLC
UO-31 renal = system: UO-31 renal
IGROV1 ovarian = system: IGROV1 ovarian
COLO 205 colon = system: COLO 205 colon
SNB-75 CNS = system: SNB-75 CNS
SF-539 CNS = system: SF-539 CNS
CAKI-1 renal = system: CAKI-1 renal
OVCAR-8 ovarian = system: OVCAR-8 ovarian
UACC-257 melanoma = system: UACC-257 melanoma
HS 578T breast = system: HS 578T breast
HL-60(TB) leukemia = system: HL-60(TB) leukemia
HT29 colon = system: HT29 colon
NCI-H460 lung = system: NCI-H460 lung
HCT-15 colon = system: HCT-15 colon
PC-3 prostate = system: PC-3 prostate
NCI-H226 lung = system: NCI-H226 lung
OVCAR-3 ovarian = system: OVCAR-3 ovarian
SK-MEL-5 melanoma = system: SK-MEL-5 melanoma
SK-MEL-28 melanoma = system: SK-MEL-28 melanoma

COc1cc(F)ccc1-c1cc(Nc2cc(CS(C)(=N)=O)ccn2)ncc1F (stereo unspecified)
GI50 (HCT-116 colon): 29.3 nM | TGI (HCT-116 colon): > 100 µM | GI50 (RPMI-8226 leukemia): 110 nM | TGI (RPMI-8226 leukemia): 662 nM | GI50 (DU-145 prostate): 77.3 nM | TGI (DU-145 prostate): > 100 µM | GI50 (MDA-MB-435): 107 nM | TGI (MDA-MB-435): > 100 µM | GI50 (TK-10 renal): 151 nM | TGI (TK-10 renal): > 100 µM | GI50 (A498 renal): 71.3 nM | TGI (A498 renal): 392 nM | GI50 (M14 melanoma): 64.9 nM | TGI (M14 melanoma): > 37.6 µM | GI50 (T-47D breast): 121 nM | GI50 (SF-268 CNS): 68.9 nM | TGI (SF-268 CNS): > 100 µM | GI50 (LOX IMVI melanoma): 30.7 nM | TGI (LOX IMVI melanoma): > 100 µM | GI50 (K-562 leukemia): 264 nM | TGI (K-562 leukemia): > 100 µM | GI50 (HOP-92 NSCLC): 21.4 nM | TGI (HOP-92 NSCLC): 314 nM | GI50 (NCI/ADR-RES ovarian): 166 nM | TGI (NCI/ADR-RES ovarian): > 36.6 µM | GI50 (SK-MEL-2 melanoma): 135 nM | TGI (SK-MEL-2 melanoma): 437 nM | GI50 (SF-295 CNS): 66.2 nM | TGI (SF-295 CNS): > 100 µM | GI50 (OVCAR-4 ovarian): 227 nM | GI50 (SW-620 colon): 55.9 nM | TGI (SW-620 colon): > 33.1 µM | GI50 (RXF 393 renal): 22.1 nM | TGI (RXF 393 renal): 53.6 nM | GI50 (MDA-MB-231 breast): 97.4 nM | TGI (MDA-MB-231 breast): > 100 µM | GI50 (MOLT-4 leukemia): 111 nM | TGI (MOLT-4 leukemia): 985 nM | GI50 (U251 CNS): 68.3 nM | TGI (U251 CNS): > 100 µM | GI50 (MALME-3M melanoma): 200 nM | GI50 (SNB-19 CNS): 64.4 nM | TGI (SNB-19 CNS): > 100 µM | GI50 (HCC-2998 colon): 184 nM | GI50 (CCRF-CEM leukemia): 34.4 nM | TGI (CCRF-CEM leukemia): > 100 µM | GI50 (BT-549 breast): 73.9 nM | TGI (BT-549 breast): 2060 nM | GI50 (KM12 colon): 47.9 nM | TGI (KM12 colon): 15.6 µM | GI50 (SR leukemia): 17.4 nM | TGI (SR leukemia): 1290 nM | GI50 (NCI-H23 lung): 98.2 nM | TGI (NCI-H23 lung): 1240 nM | GI50 (SN12C renal): 58.3 nM | TGI (SN12C renal): > 100 µM | GI50 (OVCAR-5 ovarian): 48.8 nM | TGI (OVCAR-5 ovarian): > 100 µM | GI50 (A549 NSCLC): 105 nM | TGI (A549 NSCLC): > 100 µM | GI50 (ACHN renal): 37.1 nM | TGI (ACHN renal): > 100 µM | GI50 (SK-OV-3 ovarian): 638 nM | TGI (SK-OV-3 ovarian): > 100 µM | GI50 (HOP-62 NSCLC): 62.4 nM | TGI (HOP-62 NSCLC): > 100 µM | GI50 (786-0 renal): 44.6 nM | TGI (786-0 renal): > 47 µM | GI50 (UACC-62 melanoma): 55.5 nM | TGI (UACC-62 melanoma): 342 nM | GI50 (MCF7 breast): 39.1 nM | TGI (MCF7 breast): > 100 µM | GI50 (NCI-H522 lung): 248 nM | TGI (NCI-H522 lung): 2170 nM | GI50 (EKVX NSCLC): 153 nM | TGI (EKVX NSCLC): 8.63 µM | GI50 (UO-31 renal): 33.7 nM | TGI (UO-31 renal): > 100 µM | GI50 (IGROV1 ovarian): 57.1 nM | TGI (IGROV1 ovarian): > 100 µM | GI50 (COLO 205 colon): 33.3 nM | TGI (COLO 205 colon): 170 nM | GI50 (SNB-75 CNS): 66.3 nM | TGI (SNB-75 CNS): 433 nM | GI50 (SF-539 CNS): 36.6 nM | TGI (SF-539 CNS): 272 nM | GI50 (CAKI-1 renal): 43.8 nM | TGI (CAKI-1 renal): > 100 µM | GI50 (OVCAR-8 ovarian): 91.4 nM | TGI (OVCAR-8 ovarian): > 100 µM | GI50 (UACC-257 melanoma): 261 nM | TGI (UACC-257 melanoma): > 100 µM | GI50 (HS 578T breast): 91.9 nM | GI50 (HL-60(TB) leukemia): 28.4 nM | TGI (HL-60(TB) leukemia): 228 nM | GI50 (HT29 colon): 94.5 nM | TGI (HT29 colon): > 100 µM | GI50 (NCI-H460 lung): 59.3 nM | TGI (NCI-H460 lung): > 100 µM | GI50 (HCT-15 colon): 49.1 nM | TGI (HCT-15 colon): > 100 µM | GI50 (PC-3 prostate): 45.1 nM | TGI (PC-3 prostate): > 47.2 µM | GI50 (NCI-H226 lung): 37.5 nM | TGI (NCI-H226 lung): > 100 µM | GI50 (OVCAR-3 ovarian): 80.3 nM | TGI (OVCAR-3 ovarian): > 100 µM | GI50 (SK-MEL-5 melanoma): 38.5 nM | TGI (SK-MEL-5 melanoma): 14.3 µM | GI50 (SK-MEL-28 melanoma): 102 nM | TGI (SK-MEL-28 melanoma): 5.44 µM
